Drawing on patent EP4660182A1, “NAV1.7- AND/OR NAV1.8-INHIBITING ARYL PYRIDINE COMPOUNDS, PROCESSES FOR THE PREPARATION THEREOF, COMPOSITIONS, USES, METHODS FOR TREATMENT USING SAME, AND KITS” (Eurofarma Laboratórios S.A., priority 2023, dated 2024), this text covers IC50 for 26 compounds.

pIC50: −log10 of the molar value. Where only a bound is given, the exact number is not on record here.

Assay [1] deals with T1, human sodium channels Nav 1.7 (Homo sapiens, UniProt Q15858).
T1 construct: expressed in transfected cells
In words: Automated whole-cell voltage-clamp (ScreenPatch 384P) sodium current block, Nav 1.7. The class given is cell-based. The following applies: CHO cells stably expressing human Nav 1.7; inactivation step -40 mV 8 s, test step 0 mV (TP1A); eight concentrations; exposure at least five minutes; room temperature; read-out: Nav1.7 IC50. Here is the method: (§1) Biological assays were performed on Chinese hamster ovary (CHO) cells that express human sodium channels Nav 1.8 or Nav 1.7 in a stable manner.
(§2) The experimental protocol voltage-clamp using the whole cell configuration was established on the automated ScreenPatch® 384P platform (SP384PE, Nanion Technologies, Livingston, NJ) and the results were recorded with a Nanion 384-well Patch Clamp chip (NPC) (Nanion Technologies, Livingston, NJ).
(§3) Formula I compounds were diluted in eight concentrations in the extracellular solution composed of saline solution, buffered with HEPES (mM): NaCl, 137; KCl, 4; CaCl2, 3,8; MgCl2, 1; HEPES, 10; Glucose, 10; pH 7.4. The […], 50; CsF, 90; MgCl2, 5; EGTA, 5; HEPES, 10; pH 7.2. The duration of exposure of each compound with cells expressing Nav 1.7 or Nav 1.8 was at least five minutes and the assays were performed at room temperature.
(§4) The measurements of the sodium currents of Nav 1.8 and Nav 1.7 were obtained using the voltage protocol described below.
(§5) A holding voltage of -100 mV was established followed by an inactivation voltage step at -40 mV for 8 seconds, followed by a step of -100 mV for 20 ms, followed by a 20 ms step for 10 mV for Nav 1.8 or 0 mV for Nav 1.7 (TP1A) before returning to the holding voltage of -100 mV.
(§6) The protocol was repeated at a frequency of 0.05 Hz and the amplitude of the current was quantified throughout the recording of the TP1A phase. The variation in the amplitude of the peak current was evaluated according to the formula described below, after exposing the cells expressing the channels to each concentration of the different compounds: % Block = (1−(ITP1A,molecule/ITP1A,basal)×100%, [formula] wherein ITP1A,basal and ITP1A,molecule represent the peaks of sodium current input into TP1A before exposure to the compound and in the presence of the compound, respectively.
(§7) Data were obtained by nonlinear regression (nonlinear least squares) with XLfit for Excel (Microsoft, Redmond, WA).
(§8) The compounds were tested in at least one assay to obtain the value of CI50. For compounds that were tested in two or more assays, the results are described as the means of the CI50 values.

The target in assay [2] is T2, human sodium channels Nav 1.8 (Homo sapiens, UniProt Q9Y5Y9).
T2 construct: expressed in transfected cells
Kind of assay: Automated whole-cell voltage-clamp (ScreenPatch 384P) sodium current block, Nav 1.8. Format: cell-based. The settings on record: CHO cells stably expressing human Nav 1.8; inactivation step -40 mV 8 s, test step 10 mV (TP1A); eight concentrations; exposure at least five minutes; room temperature; read-out: Nav1.8 IC50. The method, then: as §1, §2, §3, §4, §5, §6, §7, §8

T2 sequence (Q9Y5Y9 whole entry): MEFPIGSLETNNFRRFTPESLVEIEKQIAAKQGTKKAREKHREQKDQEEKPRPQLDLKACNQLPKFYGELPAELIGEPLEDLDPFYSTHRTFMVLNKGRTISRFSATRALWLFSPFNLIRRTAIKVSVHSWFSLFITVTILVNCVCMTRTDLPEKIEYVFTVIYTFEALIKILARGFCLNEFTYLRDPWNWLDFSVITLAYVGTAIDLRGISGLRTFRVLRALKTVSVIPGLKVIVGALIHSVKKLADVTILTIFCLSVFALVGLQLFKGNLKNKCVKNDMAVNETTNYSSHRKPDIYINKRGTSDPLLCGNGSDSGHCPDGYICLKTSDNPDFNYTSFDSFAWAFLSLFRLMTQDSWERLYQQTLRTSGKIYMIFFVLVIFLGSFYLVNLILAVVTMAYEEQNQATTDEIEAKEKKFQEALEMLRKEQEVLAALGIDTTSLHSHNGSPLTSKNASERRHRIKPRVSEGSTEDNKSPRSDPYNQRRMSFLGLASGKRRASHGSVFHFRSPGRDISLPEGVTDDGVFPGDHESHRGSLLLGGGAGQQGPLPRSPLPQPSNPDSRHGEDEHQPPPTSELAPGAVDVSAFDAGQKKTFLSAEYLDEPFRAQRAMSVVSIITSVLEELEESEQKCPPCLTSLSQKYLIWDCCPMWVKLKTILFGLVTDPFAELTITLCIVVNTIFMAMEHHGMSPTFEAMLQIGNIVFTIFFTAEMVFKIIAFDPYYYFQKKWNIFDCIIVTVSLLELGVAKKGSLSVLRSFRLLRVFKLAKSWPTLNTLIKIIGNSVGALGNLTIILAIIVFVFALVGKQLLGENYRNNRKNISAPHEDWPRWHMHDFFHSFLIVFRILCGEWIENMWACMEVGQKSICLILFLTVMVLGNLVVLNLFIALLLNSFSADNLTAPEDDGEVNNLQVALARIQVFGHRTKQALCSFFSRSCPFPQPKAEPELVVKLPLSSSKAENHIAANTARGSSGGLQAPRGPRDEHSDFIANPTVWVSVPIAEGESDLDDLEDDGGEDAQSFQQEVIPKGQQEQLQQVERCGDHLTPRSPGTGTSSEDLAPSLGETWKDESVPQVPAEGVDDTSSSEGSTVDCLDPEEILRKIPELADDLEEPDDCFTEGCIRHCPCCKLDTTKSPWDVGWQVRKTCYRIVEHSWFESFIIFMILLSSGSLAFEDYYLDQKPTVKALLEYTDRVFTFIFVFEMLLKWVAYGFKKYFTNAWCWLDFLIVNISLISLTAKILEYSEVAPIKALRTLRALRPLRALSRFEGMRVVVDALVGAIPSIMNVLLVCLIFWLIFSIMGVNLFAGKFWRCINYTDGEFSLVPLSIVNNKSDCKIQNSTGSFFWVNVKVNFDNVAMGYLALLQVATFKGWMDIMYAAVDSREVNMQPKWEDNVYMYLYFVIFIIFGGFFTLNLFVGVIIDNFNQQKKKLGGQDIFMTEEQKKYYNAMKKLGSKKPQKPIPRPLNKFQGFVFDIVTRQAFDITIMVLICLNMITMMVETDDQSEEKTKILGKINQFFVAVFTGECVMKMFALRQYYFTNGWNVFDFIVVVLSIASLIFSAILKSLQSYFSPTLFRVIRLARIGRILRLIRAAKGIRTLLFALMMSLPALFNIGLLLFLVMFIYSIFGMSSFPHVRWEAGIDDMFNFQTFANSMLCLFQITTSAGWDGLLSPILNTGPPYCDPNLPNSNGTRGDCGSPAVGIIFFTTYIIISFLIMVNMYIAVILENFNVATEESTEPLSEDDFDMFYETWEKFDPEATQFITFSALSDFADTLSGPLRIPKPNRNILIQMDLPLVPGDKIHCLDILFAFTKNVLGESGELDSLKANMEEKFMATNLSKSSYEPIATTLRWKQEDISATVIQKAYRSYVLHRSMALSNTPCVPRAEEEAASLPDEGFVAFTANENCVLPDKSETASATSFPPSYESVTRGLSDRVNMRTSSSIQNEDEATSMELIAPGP
T1 sequence (Q15858 whole entry): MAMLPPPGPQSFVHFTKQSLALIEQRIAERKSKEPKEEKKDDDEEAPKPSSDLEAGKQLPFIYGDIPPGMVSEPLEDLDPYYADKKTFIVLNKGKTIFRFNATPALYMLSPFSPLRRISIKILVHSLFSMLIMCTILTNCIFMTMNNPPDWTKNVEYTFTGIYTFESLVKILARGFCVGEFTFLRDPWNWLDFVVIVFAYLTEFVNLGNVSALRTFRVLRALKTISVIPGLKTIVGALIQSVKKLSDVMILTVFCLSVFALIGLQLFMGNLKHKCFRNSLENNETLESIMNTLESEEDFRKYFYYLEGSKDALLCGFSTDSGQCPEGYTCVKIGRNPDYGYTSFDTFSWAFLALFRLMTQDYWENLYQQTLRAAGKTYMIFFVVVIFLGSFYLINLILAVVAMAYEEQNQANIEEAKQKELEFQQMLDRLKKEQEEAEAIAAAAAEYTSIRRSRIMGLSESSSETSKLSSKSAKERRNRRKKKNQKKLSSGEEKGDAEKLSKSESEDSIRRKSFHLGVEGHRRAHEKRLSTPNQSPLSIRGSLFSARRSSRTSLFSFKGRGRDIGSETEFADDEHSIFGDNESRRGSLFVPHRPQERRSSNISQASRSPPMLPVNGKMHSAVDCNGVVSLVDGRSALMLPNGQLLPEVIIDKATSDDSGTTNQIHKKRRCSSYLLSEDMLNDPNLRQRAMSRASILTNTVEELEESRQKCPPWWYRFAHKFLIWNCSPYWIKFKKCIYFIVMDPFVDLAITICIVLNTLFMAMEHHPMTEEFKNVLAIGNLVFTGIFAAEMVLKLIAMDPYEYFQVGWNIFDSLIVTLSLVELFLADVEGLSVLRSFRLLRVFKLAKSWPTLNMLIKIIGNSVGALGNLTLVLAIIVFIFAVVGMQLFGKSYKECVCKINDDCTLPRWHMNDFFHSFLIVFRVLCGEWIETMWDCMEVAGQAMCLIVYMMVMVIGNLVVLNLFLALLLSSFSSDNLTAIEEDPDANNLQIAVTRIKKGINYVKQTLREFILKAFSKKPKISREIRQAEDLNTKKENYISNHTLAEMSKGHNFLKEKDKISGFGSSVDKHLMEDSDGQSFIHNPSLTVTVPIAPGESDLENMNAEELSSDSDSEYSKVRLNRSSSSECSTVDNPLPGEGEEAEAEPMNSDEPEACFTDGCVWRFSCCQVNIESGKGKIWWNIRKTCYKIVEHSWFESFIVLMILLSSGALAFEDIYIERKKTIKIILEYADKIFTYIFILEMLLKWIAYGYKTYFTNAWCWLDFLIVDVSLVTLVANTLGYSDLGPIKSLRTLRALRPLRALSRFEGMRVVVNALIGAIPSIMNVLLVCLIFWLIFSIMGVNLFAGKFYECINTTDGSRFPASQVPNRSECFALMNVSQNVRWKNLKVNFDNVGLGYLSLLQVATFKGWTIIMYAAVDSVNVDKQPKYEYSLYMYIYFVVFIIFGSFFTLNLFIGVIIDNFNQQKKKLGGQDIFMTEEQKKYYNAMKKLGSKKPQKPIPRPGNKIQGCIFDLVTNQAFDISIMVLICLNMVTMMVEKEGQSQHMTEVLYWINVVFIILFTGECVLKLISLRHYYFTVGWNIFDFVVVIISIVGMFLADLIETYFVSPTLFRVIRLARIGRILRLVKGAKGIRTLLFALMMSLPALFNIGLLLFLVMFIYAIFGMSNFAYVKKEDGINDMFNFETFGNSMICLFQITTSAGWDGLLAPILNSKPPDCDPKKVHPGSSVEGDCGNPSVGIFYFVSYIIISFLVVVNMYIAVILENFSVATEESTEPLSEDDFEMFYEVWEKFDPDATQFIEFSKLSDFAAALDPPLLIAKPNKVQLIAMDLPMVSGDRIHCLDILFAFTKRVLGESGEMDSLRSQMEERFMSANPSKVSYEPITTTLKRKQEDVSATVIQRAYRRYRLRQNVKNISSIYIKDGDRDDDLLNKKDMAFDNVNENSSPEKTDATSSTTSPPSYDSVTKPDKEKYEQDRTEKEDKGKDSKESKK

`CCOc1ccc(-c2cncc(C(=O)N/N=C/c3ccc(F)c(OC)c3)n2)cn1` [Compound 2, (E)-6-(6-ethoxypyridine-3-yl)-N'-(4-fluoro-3-methoxybenzylidene)pyrazine-2-carbohydrazide]: the pIC50 (in general, the IC50 on a negative log10 scale, so that one unit is a factor of ten) in assay [1] was 6.00 to 6.30; in assay [2], above 6.30.
`CCOc1ccc(-c2cncc(C(=O)N/N=C/c3cc(OC)c(F)cc3F)n2)cn1` [Compound 3, (E)-N'-(2,4-difluoro-5-methoxybenzylidene)-6-(6-ethoxypyridine-3-yl)pyrazine-2-carbohydrazide]: the pIC50 in assay [1] was 6.00 to 6.30; in assay [2] it was above 6.30.
The like results for `CCOc1ccc(F)c(/C=N/NC(=O)c2cncc(-c3ccc(OCC)nc3)n2)c1` [Compound 4, (E)-N'-(5-ethoxy-2-fluorobenzylidene)-6-(6-ethoxypyridine-3-yl)pyrazine-2-carbohydrazide] were, in that order, below 6.00 and above 6.30.
As to `CCOc1ccc(-c2cncc(C(=O)N/N=C/c3cc(OC(C)C)ccc3F)n2)cn1` [Compound 5, (E)-6-(6-ethoxypyridine-3-yl)-N'-(2-fluoro-5-isopropoxybenzylidene)pyrazine-2-carbohydrazide], the pIC50 in assay [1] and in assay [2] was above 6.30 in each case.
In the case of `CCOc1ccc(-c2cncc(C(=O)N/N=C/c3cc(OC4CC4)ccc3F)n2)cn1` [Compound 6, (E)-N'-(5-cyclopropoxy-2-fluorobenzylidene)-6-(6-ethoxypyridine-3-yl)pyrazine-2-carbohydrazide], the pIC50 is below 6.00 in assay [1] and above 6.30 in assay [2].
For `CCOc1ccc(-c2cncc(C(=O)N/N=C/c3cc(OC)cnc3F)n2)cn1` [Compound 7, (E)-6-(6-ethoxypyridine-3-yl)-N'-((2-fluoro-5-methoxypyridine-3-yl)methylene)pyrazine-2-carbohydrazide] the same measures were below 6.00 and above 6.30.
The like results for `CCOc1ccc(-c2cncc(C(=O)N/N=C/c3cc(OC)ncc3F)n2)cn1` [Compound 8, (E)-6-(6-ethoxypyridine-3-yl)-N'-((5-fluoro-2-methoxypyridine-4-yl)methylene)pyrazine-2-carbohydrazide] were, in that order, below 6.00 and 6.00 to 6.30.
The like results for `CCOc1ccc(-c2cncc(C(=O)N/N=C/c3cc(OC)ccn3)n2)cn1` [Compound 9, (E)-6-(6-ethoxypyridine-3-yl)-N'-((4-methoxypyridine-2-yl)methylene)pyrazine-2-carbohydrazide] were, in that order, below 6.00 and above 6.30.
As to `CCOc1ccc(-c2cncc(C(=O)N/N=C/c3cc(C(=O)O)ccc3F)n2)cn1` [Compound 10, (E)-3-(2-(6-(6-(6-ethoxypyridine-3-yl)pyrazine-2-carbonyl)hydrazinylidene)methyl)-4-fluorobenzoic acid], the pIC50 in assay [1] and in assay [2] was below 6.00 throughout.
For `CCOc1ccc(-c2cncc(C(=O)N/N=C/c3cc(N(C)C)ccc3F)n2)cn1` [Compound 11, (E)-N'-(5-(dimethylamino)-2-fluorobenzylidene)-6-(6-ethoxypyridine-3-yl)pyrazine-2-carbohydrazide], the results for the pIC50 in assay [1] and in assay [2] were below 6.00 and above 6.30, respectively.
With `CCOc1ccc(-c2cncc(C(=O)N/N=C/c3cc(CN)ccc3F)n2)cn1` [Compound 13, (E)-N'-(5-(aminomethyl)-2-fluorobenzylidene)-6-(6-ethoxypyridine-3-yl)pyrazine-2-carbohydrazide], the pIC50 in assay [1] and in assay [2] was below 6.00 throughout.
`CCOc1ccc(-c2cncc(C(=O)N/N=C/c3cc(S(N)(=O)=O)ccc3F)n2)cn1` [Compound 14, (E)-3-((2-(6-(6-ethoxypyridine-3-yl)pyrazine-2-carbonyl)hydrazinylidene)methyl)-4-fluorobenzenesulfonamide]: the pIC50 in assay [1] and in assay [2] was below 6.00 throughout.
For the compound `CCOc1ccc(-c2cncc(C(=O)N/N=C/c3nc(OC)ccc3F)n2)cn1` [Compound 15, (E)-6-(6-ethoxypyridine-3-yl)-N'-((3-fluoro-6-methoxypyridine-2-yl)methylene)pyrazine-2-carbohydrazide], the values for the pIC50 in assay [1] and in assay [2] were below 6.00 and above 6.30, respectively.
The like results for `CCOc1ccc(-c2cncc(C(=O)N/N=C/c3cc(OC)ccc3C)n2)cn1` [Compound 17, (E)-6-(6-ethoxypyridine-3-yl)-N'-(5-methoxy-2-methylbenzylidene)pyrazine-2-carbohydrazide] were, in that order, 6.00 to 6.30 and above 6.30.
`CCOc1ccc(-c2cncc(C(=O)N/N=C/c3cncc(OC)c3)n2)cn1` [Compound 18, (E)-6-(6-ethoxypyridine-3-yl)-N'-((5-methoxypyridine-3-yl)methylene)pyrazine-2-carbohydrazide]: the pIC50 in assay [1] is below 6.00; in assay [2] it was above 6.30.
Turning to `CCOc1ccc(-c2cncc(C(=O)N/N=C/c3cc(OC)ccc3O)n2)cn1` [Compound 19, (E)-6-(6-ethoxypyridine-3-yl)-N'-(2-hydroxy-5-methoxybenzylidene)pyrazine-2-carbohydrazide], the negative logarithm of the IC50 (pIC50) in assay [1] was below 6.00; in assay [2], 6.00 to 6.30.
For `CCOc1ccc(-c2cncc(C(=O)N/N=C/c3cc(OC4CNC4)ccc3F)n2)cn1` [Compound 20, (E)-N'-(5-(azetidine-3-yloxy)-2-fluorobenzylidene)-6-(6-ethoxypyridine-3-yl)pyrazine-2-carbohydrazide] the same measures were below 6.00 and below 6.00.
The like results for `CCOc1ccc(-c2cncc(C(=O)N/N=C/c3cc(OC4CCC4)ccc3F)n2)cn1` [Compound 21, (E)-N'-(5-cyclobutoxy-2-fluorobenzylidene)-6-(6-ethoxypyridine-3-yl)pyrazine-2-carbohydrazide] were, in that order, 6.00 to 6.30 and above 6.30.
Consider `CCOc1ccc(-c2cncc(C(=O)N/N=C/c3cccc(C(C)O)c3)n2)cn1` (stereo not shown) [Compound 22, (E)-6-(6-ethoxypyridine-3-yl)-N'-(3-(1-hydroxyethyl)benzylidene)pyrazine-2-carbohydrazide], for which the results for the pIC50 in assay [1] and in assay [2] were below 6.00 and 6.00 to 6.30, respectively.
On to `CCOc1ccc(-c2cncc(C(=O)N/N=C/c3cc(C(C)O)ccc3F)n2)cn1` (stereo not shown) [Compound 23, (E)-6-(6-ethoxypyridine-3-yl)-N'-(2-fluoro-5-(1-hydroxyethyl)benzylidene)pyrazine-2-carbohydrazide], for which the pIC50 is below 6.00 in assay [1] and above 6.30 in assay [2].
`CCOc1ccc(-c2cncc(C(=O)N/N=C/c3cncc(C(C)O)c3)n2)cn1` (stereo not shown) [Compound 24, (E)-6-(6-ethoxypyridine-3-yl)-N'-((5-(1-hydroxyethyl)pyridine-3-yl)methylene)pyrazine-2-carbohydrazide]: the pIC50 in assay [1] and in assay [2] was below 6.00 each time.
As for `CCOc1ccc(-c2cncc(C(=O)N/N=C/c3cc(C(C)O)cnc3F)n2)cn1` (stereo not shown) [Compound 25, (E)-6-(6-ethoxypyridine-3-yl)-N'-((2-fluoro-5-(1-hydroxyethyl)pyridine-3-yl)methylene) pyrazine-2-carbohydrazide], the pIC50 is below 6.00 in assay [1] and 6.00 to 6.30 in assay [2].
The like results for `CCOc1ccc(-c2cncc(C(=O)N/N=C/c3cc(OC)cnc3C)n2)cn1` [Compound 27, (E)-6-(6-ethoxypyridine-3-yl)-N'-((5-methoxy-2-methylpyridine-3-yl)methylene)pyrazine-2-carbohydrazide] were, in that order, below 6.00 and above 6.30.
As for `CCOc1ccc(-c2cncc(C(=O)N/N=C/c3cc(O)cnc3F)n2)cn1` [Compound 28, (E)-6-(6-ethoxypyridine-3-yl)-N'-((2-fluoro-5-hydroxypyridine-3-yl)methylene)pyrazine-2-carbohydrazide], the figures for the pIC50 in assay [1] and in assay [2] were below 6.00 and 6.00 to 6.30, respectively.
The like results for `CCOc1ccc(-c2cncc(C(=O)N/N=C/c3cc(C(C)O)ccn3)n2)cn1` (stereo not shown) [Compound 31, (E)-6-(6-ethoxypyridine-3-yl)-N'-((4-(1-hydroxyethyl)pyridine-2-yl)methylene)pyrazine-2-carbohydrazide] were, in that order, below 6.00 and below 6.00.
Take `CCOc1ccc(-c2cncc(C(=O)N/N=C/c3cc(OC4CNC4)cnc3F)n2)cn1` [Compound 34, (E)-N'-((5-(azetidin-3-yloxy)-2-fluoropyridine-3-yl)methylene)-6-(6-ethoxypyridine-3-yl) pyrazine-2-carbohydrazide]: the pIC50 in assay [1] and in assay [2] was below 6.00 in each case.
